Biological target: α7 nAChR subtype (Rattus norvegicus, UniProt Q05941)
Type: binding
Details: read-out: KD of the radioligand (saturation curve, one site model)

Chain of α7 nAChR subtype (Q05941 23-502 limits assumed): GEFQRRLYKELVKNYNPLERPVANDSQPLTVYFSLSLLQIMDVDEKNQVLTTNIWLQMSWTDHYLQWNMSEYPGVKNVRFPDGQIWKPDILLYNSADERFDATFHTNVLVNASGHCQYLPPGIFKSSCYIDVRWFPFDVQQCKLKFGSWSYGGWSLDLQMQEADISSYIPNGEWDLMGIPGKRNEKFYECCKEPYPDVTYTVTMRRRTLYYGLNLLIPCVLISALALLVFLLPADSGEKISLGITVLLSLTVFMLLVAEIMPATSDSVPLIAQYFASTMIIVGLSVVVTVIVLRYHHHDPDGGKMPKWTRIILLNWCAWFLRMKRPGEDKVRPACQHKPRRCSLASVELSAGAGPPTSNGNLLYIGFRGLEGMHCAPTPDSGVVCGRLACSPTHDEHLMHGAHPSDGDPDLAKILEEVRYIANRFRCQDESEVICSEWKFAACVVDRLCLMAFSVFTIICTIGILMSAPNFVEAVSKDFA

## ^125I-α-Bungarotoxin [^125I-α-BTX]
  Kd: 1.67 nM
